Test results: ChEMBL document CHEMBL3632622, “Synthesis and biological evaluation of novel N-phenyl ureidobenzenesulfonate derivatives as potential anticancer agents. Part 2. Modulation of the ring B” (Eur J Med Chem, 2015)
Active and inactive are the calls of the source. The calls are words filed in the database; no cut-off is given here.

Assays:
MCF7 = experiment: Antiproliferative activity against human MCF7 cells assessed as growth inhibition incubated for 48 hrs by sulforhodamine B assay; type: functional, cell-based; conditions: MCF7, 48 h
M21 [1] = experiment: Antiproliferative activity against human M21 cells assessed as growth inhibition incubated for 48 hrs by sulforhodamine B assay; type: functional, cell-based; conditions: M21, 48 h
M21 [2] = experiment: Cell cycle arrest in human M21 cells assessed as accumulation at subG1 phase at 13 uM after 24 hrs by DAPI staining-based flow cytometry (reference value: 1.5%); type: functional
M21 [3] = experiment: Cell cycle arrest in human M21 cells assessed as accumulation at G2/M phase at 13 uM after 24 hrs by DAPI staining-based flow cytometry (reference value: 16%); type: functional
HT-29 = experiment: Antiproliferative activity against human HT-29 cells assessed as growth inhibition incubated for 48 hrs by sulforhodamine B assay; type: functional, cell-based; conditions: HT-29, 48 h
M21 [4] = experiment: Cell cycle arrest in human M21 cells assessed as accumulation at G0/G1 phase at 13 uM after 24 hrs by DAPI staining-based flow cytometry (reference value: 65.1%); type: functional
M21 [5] = experiment: Cell cycle arrest in human M21 cells assessed as accumulation at S phase at 13 uM after 24 hrs by DAPI staining-based flow cytometry (reference value: 17.4%); type: functional
[6] = Antiproliferative activity against human HT1080 cells assessed as growth inhibition incubated for 48 hrs by sulforhodamine B assay; type: functional, cell-based, HT-1080
M21 [7] = experiment: Cell cycle arrest in human M21 cells assessed as accumulation at G0/G1 phase at 1 uM after 24 hrs by DAPI staining-based flow cytometry (reference value: 65.1%); type: functional
M21 [8] = experiment: Induction DNA DSBs in human M21 cells assessed as increase in gamma H2AX foci at 1 uM incubated for 24 hrs by DAPI staining based immunocytochemistry; type: cell-based
M21 [9] = experiment: Cell cycle arrest in human M21 cells assessed as accumulation at subG1 phase at 1 uM after 24 hrs by DAPI staining-based flow cytometry (reference value: 1.5%); type: functional
M21 [10] = experiment: Cell cycle arrest in human M21 cells assessed as accumulation at G2/M phase at 1 uM after 24 hrs by DAPI staining-based flow cytometry (reference value: 16%); type: functional
M21 [11] = experiment: Cell cycle arrest in human M21 cells assessed as accumulation at S phase at 1 uM after 24 hrs by DAPI staining-based flow cytometry (reference value: 17.4%); type: functional
M21 [12] = experiment: Cell cycle arrest in human M21 cells assessed as accumulation at G2/M phase at 4.1 uM after 24 hrs by DAPI staining-based flow cytometry (reference value: 16%); type: functional
M21 [13] = experiment: Cell cycle arrest in human M21 cells assessed as accumulation at S phase at 4.1 uM after 24 hrs by DAPI staining-based flow cytometry (reference value: 17.4%); type: functional
M21 [14] = experiment: Cell cycle arrest in human M21 cells assessed as accumulation at G0/G1 phase at 4.1 uM after 24 hrs by DAPI staining-based flow cytometry (reference value: 65.1%); type: functional
M21 [15] = experiment: Cell cycle arrest in human M21 cells assessed as accumulation at subG1 phase at 4.1 uM after 24 hrs by DAPI staining-based flow cytometry (reference value: 1.5%); type: functional
M21 [16] = experiment: Cell cycle arrest in human M21 cells assessed as accumulation at G2/M phase at 34 uM after 24 hrs by DAPI staining-based flow cytometry (reference value: 16%); type: functional
M21 [17] = experiment: Cell cycle arrest in human M21 cells assessed as accumulation at subG1 phase at 34 uM after 24 hrs by DAPI staining-based flow cytometry (reference value: 1.5%); type: functional
M21 [18] = experiment: Cell cycle arrest in human M21 cells assessed as accumulation at G0/G1 phase at 34 uM after 24 hrs by DAPI staining-based flow cytometry (reference value: 65.1%); type: functional
M21 [19] = experiment: Cell cycle arrest in human M21 cells assessed as accumulation at S phase at 34 uM after 24 hrs by DAPI staining-based flow cytometry (reference value: 17.4%); type: functional
[20] = Homo sapiens, HT-1080, 48 h, read-out: IC50

IC50 (MCF7) | IC50 (HT-29) | Structure (SMILES) | IC50 (M21 [1]) | IC50 [6, 20] | further results
3.7 µM | 2.8 µM | O=C(NCCCl)Nc1ccc(S(=O)(=O)Oc2cccc(Cl)c2)cc1 | 2.6 µM | 2.6 µM | Activity (M21 [2]): 5.2%; Activity (M21 [3]): 80.6%; Activity (M21 [4]): 7.2%; Activity (M21 [5]): 7%
19 µM | 13 µM | COc1ccccc1OS(=O)(=O)c1ccc(NC(=O)NCCCl)cc1 | 15 µM | 8.3 µM | 
19 µM | 17 µM | O=C(NCCCl)Nc1ccc(S(=O)(=O)Oc2ccccc2)cc1 | 16 µM | 8.8 µM | 
23 µM | 22 µM | COc1ccc(OS(=O)(=O)c2ccc(NC(=O)NCCCl)cc2)cc1 | 17 µM | 15 µM | 
16 µM | 15 µM | CCc1ccc(OS(=O)(=O)c2ccc(NC(=O)NCCCl)cc2)cc1 | 16 µM | 9.8 µM | 
1.51 µM | 1.5 µM | O=C(NCCCl)Nc1ccc(S(=O)(=O)Oc2ccccc2I)cc1 | 1.9 µM | 1.2 µM | Activity (M21 [7]): 36.4%; Activity (M21 [8]): Active; Activity (M21 [9]): 1.7%; Activity (M21 [10]): 15%; Activity (M21 [11]): 46.9%
2.6 µM | 2.1 µM | O=C(NCCCl)Nc1ccc(S(=O)(=O)Oc2cccc(Br)c2)cc1 | 2.2 µM | 2 µM | Activity (M21 [2]): 4.4%; Activity (M21 [3]): 92.4%; Activity (M21 [4]): 1.6%; Activity (M21 [5]): 1.6%
4.1 µM | 3.3 µM | CCc1ccccc1OS(=O)(=O)c1ccc(NC(=O)NCCCl)cc1 | 2.1 µM | 1.2 µM | Activity (M21 [12]): 19.2%; Activity (M21 [13]): 44.1%; Activity (M21 [14]): 34.7%; Activity (M21 [15]): 2%
18 µM | 17 µM | O=C(NCCCl)Nc1ccc(S(=O)(=O)Oc2cccc([N+](=O)[O-])c2)cc1 | 17 µM | 10 µM | 
7.2 µM | 6 µM | Cc1cccc(OS(=O)(=O)c2ccc(NC(=O)NCCCl)cc2)c1 | 6.2 µM | 5.8 µM | 
7.3 µM | 6.3 µM | O=C(NCCCl)Nc1ccc(S(=O)(=O)Oc2ccc(Cl)cc2)cc1 | 6 µM | 5.9 µM | Activity (M21 [16]): 65.8%; Activity (M21 [17]): 8.6%; Activity (M21 [18]): 19%; Activity (M21 [19]): 6.6%
 |  | CN(C)c1ccc(OS(=O)(=O)c2ccc(NC(=O)NCCCl)cc2)cc1 |  |  | IC50 ([6]; ht-1080): Not Active
2.9 µM | 1.8 µM | Cc1cc(C)cc(OS(=O)(=O)c2ccc(NC(=O)NCCCl)cc2)c1 | 1.7 µM | 2.4 µM | 
15 µM | 13 µM | COc1ccc(OS(=O)(=O)c2ccc(NC(=O)NCCCl)cc2)cc1OC | 12 µM | 11 µM | 
7.8 µM | 5.5 µM | O=C(NCCCl)Nc1ccc(S(=O)(=O)Oc2cccc(F)c2)cc1 | 5.3 µM | 4.5 µM | Activity (M21 [16]): 86.9%; Activity (M21 [17]): 6.2%; Activity (M21 [18]): 2.5%; Activity (M21 [19]): 4.4%
11.3 µM | 9.9 µM | O=C(NCCCl)Nc1ccc(S(=O)(=O)Oc2cc(F)c(F)c(F)c2)cc1 | 11.3 µM | 9.8 µM | 
